Several values for one entry are separate records, joined by “and”; a condition that tells them apart may be missing. Equal entries are not always repeated.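 Compound exposure: 48 hours, 5 concentrations, 96-well plates. GI50 is the concentration that inhibits growth by half. TGI: concentration producing complete growth inhibition.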 Where only a bound is given, the exact number is not on record here.

For one test, the system named is MALME-3M melanoma. The test is described as follows: DTP human tumour cell line panel, 48 h.
In the case of `NC(=O)N/N=C(\Cc1nc2ccc(Cl)cc2[nH]c1=O)C(=O)Nc1ccc(Cl)cc1Cl`, the TGI (commonly the concentration giving total growth inhibition) was more than 100 µM.

`O=c1nc(N2CCN(c3ccccc3)CC2)ccn1C1OC(CO)C(O)C1O` (stereo unspecified) displayed a TGI of more than 100 µM.

`OCCCCCNc1c2ccccc2nc2ccccc12` yielded a TGI of 4.15 µM.

The compound `CCOP(=O)(OCC)/C(C#N)=C/c1cnc(-c2ccccc2)[nH]1` came in with a TGI of more than 100 µM.

In the case of `CC(=O)OCC1OC(OC(C)(C)CC/C=C(\C)[C@@H]2C/C=C(\C)CC/C=C(\C)CC2)C(O)C(O)C1OC(C)=O` (stereo partly specified), the TGI is 56.4 µM and 34.5 µM.

For the compound `CN(C)CCCOC(=O)C(c1ccccc1)C1(O)CCSCC1` (stereo unspecified), the TGI was more than 100 µM.

For the compound `COCOC1/C=C/CCCCC2=C(C)C=C(C1)O2` (stereo unspecified), the TGI was more than 100 µM.

For `O=C(O)c1cc2c(cc1CC(Cc1ccc3c(c1)CCC3)C(=O)O)CCC2` (stereo unspecified), the TGI is more than 100 µM.

In the case of `C[C@@]12[C@H]3CC[C@@H]1[C@H](O)C(=O)N2CC3`, the concentration for total growth inhibition (TGI) was more than 100 µM.

`O=C1CCC[C@@H]2NC[C@@H](c3ccc4c(c3)OCO4)[C@H]12`: the TGI was more than 25 µM.

With `Cc1ccc([C@@H]2[C@@H](C(=O)c3ccccn3)[C@H](c3ccc(C)cc3)C[C@](O)(c3ccccn3)[C@H]2C(=O)c2ccccn2)cc1`, the TGI was more than 100 µM.

As to `O=C1C(Cl)=C(N2CCN(C3=C(Cl)C(=O)c4ccccc4C3=O)CC2)C(=O)c2ccccc21`, the TGI is 3.32 µM.

Turning to `CC(C)(N=NC(C)(C)C(=O)NCCO)C(=O)NCCO`, the TGI is more than 100 µM.

In turn, `CCOc1cc(NC(C)=O)ccc1C(=O)NNC(=O)c1ccccc1OC(C)=O` registered a TGI of more than 100 µM.

Regarding `Cc1nnc2n1N=C(c1cc(F)c(Cl)cc1Cl)/C(=C/c1ccc(Cl)cc1)S2`, the TGI is 58.9 µM.

In the case of `CC(O[Si](c1ccccc1)(c1ccccc1)C(C)(C)C)[C@H](NC(=O)OC(C)(C)C)C(=O)O[Si](c1ccccc1)(c1ccccc1)C(C)(C)C` (stereo partly specified), the TGI turned out to be 34.3 µM.

As to `COc1cc(/C=C2/C(=O)N(C(=O)c3ccccc3O)N=C2C)cc(OC)c1OC`, the TGI is more than 100 µM.

Compound `CCCCCCCCCCCCCCCCCCNc1ccn(C2OC(COP(=O)(O)OCC3OC(n4ccc(NC(=O)CCCCCCCCCCCCCCCCC)nc4=O)C(OC(C)=O)C3OC(C)=O)C(OC(C)=O)C2OC(C)=O)c(=O)n1` (stereo unspecified) showed a TGI of more than 100 µM.

For the compound `COc1cccc(-c2cc(=O)c3ccccc3o2)c1N`, the TGI was more than 56 µM.

Regarding `Cc1nc2c(sc(=S)n2-c2ccccc2)c2nc3ncccc3n12`, the TGI was more than 100 µM.

`Cc1c(-c2nc3ccccc3[nH]2)c(=O)n(-c2ccccc2)n1C` displayed a TGI of more than 100 µM.

Turning to `Cc1nnc(Nc2ccccc2)o1`, the total growth inhibition concentration (TGI) was more than 100 µM.

Consider `COc1cc(O)c(/C=N/N=C(\N)NO)c(OC)c1`, for which the TGI was more than 10 µM.

Consider `CCCCN1C(=O)CC2[C@@H]3CCc4cc(OC(C)=O)ccc4C3CC[C@]2(C)C1=O` (stereo partly specified), for which the TGI was more than 10 µM.

For the next test, the system named is MDA-N. The test is described as follows: DTP human tumour cell line panel, 48 h.
For the compound `NC(=O)N/N=C(\Cc1nc2ccc(Cl)cc2[nH]c1=O)C(=O)Nc1ccc(Cl)cc1Cl`, the total growth inhibition concentration (TGI) was more than 100 µM.

In turn, `O=c1nc(N2CCN(c3ccccc3)CC2)ccn1C1OC(CO)C(O)C1O` (stereo unspecified) showed a TGI of more than 100 µM.

Take `OCCCCCNc1c2ccccc2nc2ccccc12`: the TGI turned out to be 7.42 µM.

`CCOP(=O)(OCC)/C(C#N)=C/c1cnc(-c2ccccc2)[nH]1` yielded a TGI of more than 100 µM.

Regarding `CC(=O)OCC1OC(OC(C)(C)CC/C=C(\C)[C@@H]2C/C=C(\C)CC/C=C(\C)CC2)C(O)C(O)C1OC(C)=O` (stereo partly specified), the TGI is > 61.4 µM and 41.5 µM.

The compound `CN(C)CCCOC(=O)C(c1ccccc1)C1(O)CCSCC1` (stereo unspecified) yielded a TGI of more than 100 µM.

Turning to `COCOC1/C=C/CCCCC2=C(C)C=C(C1)O2` (stereo unspecified), the TGI was more than 100 µM.

`O=C(O)c1cc2c(cc1CC(Cc1ccc3c(c1)CCC3)C(=O)O)CCC2` (stereo unspecified) registered a TGI of more than 100 µM.

For the compound `C[C@@]12[C@H]3CC[C@@H]1[C@H](O)C(=O)N2CC3`, the TGI is more than 100 µM.

For `O=C1CCC[C@@H]2NC[C@@H](c3ccc4c(c3)OCO4)[C@H]12`, the TGI is more than 25 µM.

Compound `Cc1ccc([C@@H]2[C@@H](C(=O)c3ccccn3)[C@H](c3ccc(C)cc3)C[C@](O)(c3ccccn3)[C@H]2C(=O)c2ccccn2)cc1` came in with a TGI of more than 28.5 µM.

`O=C1C(Cl)=C(N2CCN(C3=C(Cl)C(=O)c4ccccc4C3=O)CC2)C(=O)c2ccccc21` showed a TGI of 3.29 µM.

`CC(C)(N=NC(C)(C)C(=O)NCCO)C(=O)NCCO`: the TGI is more than 100 µM.

Consider `CCOc1cc(NC(C)=O)ccc1C(=O)NNC(=O)c1ccccc1OC(C)=O`, for which the concentration for total growth inhibition (TGI) is more than 100 µM.

In turn, `Cc1nnc2n1N=C(c1cc(F)c(Cl)cc1Cl)/C(=C/c1ccc(Cl)cc1)S2` registered a TGI of 35.4 µM.

Compound `CC(O[Si](c1ccccc1)(c1ccccc1)C(C)(C)C)[C@H](NC(=O)OC(C)(C)C)C(=O)O[Si](c1ccccc1)(c1ccccc1)C(C)(C)C` (stereo partly specified) gave a TGI of 34.1 µM.

In the case of `COc1cc(/C=C2/C(=O)N(C(=O)c3ccccc3O)N=C2C)cc(OC)c1OC`, the TGI is more than 100 µM.

Turning to `CCCCCCCCCCCCCCCCCCNc1ccn(C2OC(COP(=O)(O)OCC3OC(n4ccc(NC(=O)CCCCCCCCCCCCCCCCC)nc4=O)C(OC(C)=O)C3OC(C)=O)C(OC(C)=O)C2OC(C)=O)c(=O)n1` (stereo unspecified), the TGI is more than 100 µM.

With `COc1cccc(-c2cc(=O)c3ccccc3o2)c1N`, the TGI was more than 100 µM.

`Cc1nc2c(sc(=S)n2-c2ccccc2)c2nc3ncccc3n12` registered a TGI of more than 100 µM.

In the case of `Cc1c(-c2nc3ccccc3[nH]2)c(=O)n(-c2ccccc2)n1C`, the TGI is more than 100 µM.

Compound `Cc1nnc(Nc2ccccc2)o1` showed a TGI of more than 100 µM.

`COc1cc(O)c(/C=N/N=C(\N)NO)c(OC)c1` showed a TGI of more than 10 µM.

In the case of `CCCCN1C(=O)CC2[C@@H]3CCc4cc(OC(C)=O)ccc4C3CC[C@]2(C)C1=O` (stereo partly specified), the TGI was more than 10 µM.

For another test, the system named is PC-3 prostate. The test is described as follows: DTP human tumour cell line panel, 48 h.
`NC(=O)N/N=C(\Cc1nc2ccc(Cl)cc2[nH]c1=O)C(=O)Nc1ccc(Cl)cc1Cl` yielded a TGI of more than 100 µM.

Regarding `O=c1nc(N2CCN(c3ccccc3)CC2)ccn1C1OC(CO)C(O)C1O` (stereo unspecified), the TGI is more than 100 µM.

`OCCCCCNc1c2ccccc2nc2ccccc12` came in with a TGI of 7.2 µM.

`CCOP(=O)(OCC)/C(C#N)=C/c1cnc(-c2ccccc2)[nH]1` had a TGI of more than 100 µM.

Turning to `CC(=O)OCC1OC(OC(C)(C)CC/C=C(\C)[C@@H]2C/C=C(\C)CC/C=C(\C)CC2)C(O)C(O)C1OC(C)=O` (stereo partly specified), the GI50 (in general, the concentration at which growth is held to half of that of the control) is 35.8 µM and 13.1 µM; the TGI is > 94.8 µM and 25.8 µM.

`CN(C)CCCOC(=O)C(c1ccccc1)C1(O)CCSCC1` (stereo unspecified) came in with a TGI of more than 100 µM.

`COCOC1/C=C/CCCCC2=C(C)C=C(C1)O2` (stereo unspecified) came in with a concentration for total growth inhibition (TGI) of more than 100 µM.

`O=C(O)c1cc2c(cc1CC(Cc1ccc3c(c1)CCC3)C(=O)O)CCC2` (stereo unspecified) displayed a TGI of more than 100 µM.

In the case of `C[C@@]12[C@H]3CC[C@@H]1[C@H](O)C(=O)N2CC3`, the concentration for total growth inhibition (TGI) was more than 100 µM.

Compound `O=C1CCC[C@@H]2NC[C@@H](c3ccc4c(c3)OCO4)[C@H]12` returned a total growth inhibition concentration (TGI) of more than 25 µM.

For the compound `Cc1ccc([C@@H]2[C@@H](C(=O)c3ccccn3)[C@H](c3ccc(C)cc3)C[C@](O)(c3ccccn3)[C@H]2C(=O)c2ccccn2)cc1`, the TGI was more than 100 µM.

For the compound `O=C1C(Cl)=C(N2CCN(C3=C(Cl)C(=O)c4ccccc4C3=O)CC2)C(=O)c2ccccc21`, the TGI turned out to be 20.3 µM.

Source of the values: PubChem BioAssay (NCI).
